Test results: patent publication US9663463B2, “3-azabicyclo[3.1.0]hexane derivative and use thereof for medical purpose” (priority 2013, dated 2017)
Structures can show the parent of a compound that is named as a salt.

biological target: human μ-opioid receptor (Homo sapiens (Human), UniProt P35372); assay: Antagonist activity test using [35S]-GTPγS bond as index using human μ-opioid receptor-expressing cell membrane; assay type: biochemical
Procedure: Cells in which a human μ-opioid receptor had been highly expressed was purchased from ChanTest (Cleveland). The cells were cultured in a carbon dioxide gas culturing apparatus by using a Ham's F12 culture medium (Invitrogen) containing 10% of fetal bovine blood serum, 1% of non-essential amino acids, 0.4 mg/ml of G418, 100 U/ml of penicillin and 100 μg/ml of streptomycin. The cultured cells were suspended by using a 0.25% trypsin 1 mM EDTA solution, the suspension was collected by using phosphate-buffered saline and centrifuged at 4° C. and 1,000 rpm for 10 minute to remove the supernatant, whereby a cell mass was obtained. […] Similar homogenization and centrifugation operations were repeated on the sediment, a homogenized buffer was added again to the obtained sediment, and the resultant was similarly homogenized to give a membrane fraction solution. The obtained membrane fraction solution was dispensed, rapidly frozen and stored under freezing at −70° C. or less until use. Furthermore, the protein concentration of the obtained membrane fraction solution was measured by using a BCA protein Assay Kit (Cat. 23227, Pierce) according to the protocol attached to the kit.
The cell membrane fraction solution in which the human μ-opioid receptor had expressed, which had been stored under freezing, was melted, a GTP assay buffer (100 mM NaCl, 5 mM MgCl2, 1 mM EDTA-containing 50 mM Hepes (pH 7.4)) was added thereto, and the resultant was homogenized repeatedly twice by using a Polytron homogenizer (SMT Multi Disperser PB95) under ice cooling at 12,000 rpm for 20 seconds to give a homogeneous solution, and the homogeneous solution was diluted to 0.036 mg/ml with a GTP assay buffer containing 18.2 μM of GDP (final concentration: […]). The dilution was incubated for 15 minutes or more under ice cooling until the reaction was initiated. […] [^35S]-GTPγS (NEG030X, Perkinelmer) was diluted with a GTP assay buffer so as to be 0.616 nM (final concentration: 0.08 nM). The resultant was diluted with a GTP assay buffer so as to be 200 nM (final concentration: 10 nM) by using [D-Ala^2, N-Me-Phe^4, Gly^5-ol]-enkephalinacetate (DAMGO, Sigma) as a μ-opioid receptor agonist. WGA Coated PVT SPA Beads (RPNQ0001, Perkinelmer) were added so as to be 20 mg/ml with a GTP assay buffer, and the resultant was suspended (final concentration: 1 mg/well). 4 μL/well of a test substance solution, 10 μL/well of a DAMGO solution, 26 μL/well of a [^35S]-GTPγS solution, […] of a suspension liquid of WGA Coated PVT SPA Beads, and 110 μL/well of the membrane fraction solution were added to a 96 well plate (1450-401, Perkinelmer), the top part of the plate was sealed, and a reaction was performed at 30° C. for 60 minutes under stirring with a plate shaker. For each measurement plate, a well to which DMSO had been added instead of the test substance, and a well to which DMSO had been added instead of the test substance and a GTP assay buffer had been added instead of the DAMGO solution were prepared. Furthermore, after the reaction was completed, the reactant was centrifuged at room temperature and 1,000 rpm for 3 minutes, and the radioactivity was measured by a microplate scintillation luminescence counter (Perkinelmer).
The IC50 value of the test substance was calculated by using Graphpad Prism 5.

| SMILES | IC50 [nM] |
| --- | --- |
| CC[C@]1(c2cc(NS(=O)(=O)C3CC3)ccc2F)[C@@H]2CN(CCCN3CCC(F)(F)CC3)C[C@@H]21 [Example 15-(b), N-(3-{(1R,5S,6r)-3-[3-(4,4-difluoropiperidin-1-yl)propyl]-6-ethyl-3-azabicyclo[3.1.0]hexan-6-yl}-4-fluorophenyl)cyclopropanesulfonamide hydrochloride] | 1.7 |
| CC[C@]1(c2cc(NS(=O)(=O)C3CC3)ccc2F)[C@@H]2CN(CC3(O)Cc4ccccc4C3)C[C@@H]21 [Example 2-(b), N-(3-{(1R,5S,6r)-6-ethyl-3-[(2-hydroxy-2,3-dihydro-1H-inden-2-yl)methyl]-3-azabicyclo[3.1.0]hexan-6-yl}-4-fluorophenyl)cyclopropanesulfonamide hydrochloride] | 2 |
| CC[C@]1(c2cc(F)cc(NS(=O)(=O)C3CC3)c2)[C@@H]2CN(CC3(O)Cc4ccccc4C3)C[C@@H]21 [Example 10-(b), N-(3-{(1R,5S,6r)-6-ethyl-3-[(2-hydroxy-2,3-dihydro-1H-inden-2-yl)methyl]-3-azabicyclo[3.1.0]hexan-6-yl}-5-fluorophenyl)cyclopropanesulfonamide hydrochloride] | 3.2 |
| CC[C@]1(c2cccc(NS(=O)(=O)C3CC3)c2)[C@@H]2CN(CCCC3CCC(F)(F)CC3)C[C@@H]21 [Example 4-(b), N-(3-{(1R,5S,6r)-3-[3-(4,4-difluorocyclohexyl)propyl]-6-ethyl-3-azabicyclo[3.1.0]hexan-6-yl}phenyl)cyclopropanesulfonamide hydrochloride] | 1.5 |
| CC[C@]1(c2cc(NS(=O)(=O)C3CC3)ccc2F)[C@@H]2CN(CCCC3CCC(F)(F)CC3)C[C@@H]21 [Example 5-(b), N-(3-{(1R,5S,6r)-3-[3-(4,4-difluorocyclohexyl)propyl]-6-ethyl-3-azabicyclo[3.1.0]hexan-6-yl}-4-fluorophenyl)cyclopropanesulfonamide hydrochloride] | 1.6 |
| CC[C@]1(c2cccc(NS(=O)(=O)C3CC3)c2)[C@@H]2CN(CCCN3CCCC(F)(F)C3)C[C@@H]21 [Example 16-(b), N-(3-{(1R,5S,6r)-3-[3-(3,3-difluoropiperidin-1-yl)propyl]-6-ethyl-3-azabicyclo[3.1.0]hexan-6-yl}phenyl)cyclopropanesulfonamide hydrochloride] | 3.1 |
| CC[C@]1(c2cccc(NS(=O)(=O)C3CC3)c2)[C@@H]2CN(CCCN3CCC(F)(F)C3)C[C@@H]21 [Example 8-(b), N-(3-{(1R,5S,6r)-3-[3-(3,3-difluoropyrrolidin-1-yl)propyl]-6-ethyl-3-azabicyclo[3.1.0]hexan-6-yl}phenyl)cyclopropanesulfonamide hydrochloride] | 2.9 |
